Test results reported in patent publication US12448395B2 (BRISTOL-MYERS SQUIBB COMPANY, priority 2019, dated 2025).
One block for each compound: values may come before it.

How the values were obtained:
human TLR9 = target: T1, human TLR9 (Homo sapiens, UniProt Q9NR96); assay: TLR9 inhibition reporter assay (HEK-Blue SEAP, ODN2006 stimulation); format: cell-based; settings: HEK-Blue cells overexpressing human TLR9, ODN2006 5 nM
T1 sequence (Q9NR96 26-1032): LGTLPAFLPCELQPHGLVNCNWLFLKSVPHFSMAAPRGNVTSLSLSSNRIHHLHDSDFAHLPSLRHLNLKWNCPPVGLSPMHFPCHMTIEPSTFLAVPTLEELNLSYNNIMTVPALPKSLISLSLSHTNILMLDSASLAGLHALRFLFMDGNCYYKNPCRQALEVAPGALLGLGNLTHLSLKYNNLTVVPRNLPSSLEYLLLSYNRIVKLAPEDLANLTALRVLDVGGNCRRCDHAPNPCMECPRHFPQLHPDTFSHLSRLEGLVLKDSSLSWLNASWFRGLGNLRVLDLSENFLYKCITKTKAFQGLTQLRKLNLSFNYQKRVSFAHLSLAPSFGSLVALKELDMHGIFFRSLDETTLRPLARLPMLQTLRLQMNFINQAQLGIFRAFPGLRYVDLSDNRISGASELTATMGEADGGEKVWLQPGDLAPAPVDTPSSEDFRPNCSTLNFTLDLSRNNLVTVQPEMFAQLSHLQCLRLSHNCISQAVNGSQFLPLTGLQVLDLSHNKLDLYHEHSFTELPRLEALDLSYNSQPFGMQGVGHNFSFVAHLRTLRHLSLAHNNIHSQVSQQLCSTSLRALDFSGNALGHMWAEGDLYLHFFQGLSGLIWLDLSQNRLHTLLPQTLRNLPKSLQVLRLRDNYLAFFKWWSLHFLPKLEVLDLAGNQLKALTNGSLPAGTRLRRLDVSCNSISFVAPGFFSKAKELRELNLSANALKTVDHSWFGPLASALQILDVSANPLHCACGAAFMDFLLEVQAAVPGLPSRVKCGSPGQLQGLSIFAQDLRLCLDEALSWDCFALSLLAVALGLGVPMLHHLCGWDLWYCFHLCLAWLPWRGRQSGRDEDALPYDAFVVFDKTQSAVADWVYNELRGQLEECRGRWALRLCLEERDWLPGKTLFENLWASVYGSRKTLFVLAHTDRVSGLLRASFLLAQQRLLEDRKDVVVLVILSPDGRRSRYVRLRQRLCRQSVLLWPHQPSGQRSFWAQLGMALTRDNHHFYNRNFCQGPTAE
How it was run: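 Dose–response from 0.05 nM to 50 μM was run in HEK-Blue human TLR7, TLR8 and TLR9 reporter cells. After 30 min at room temperature with compound, ligand was added (TLR7 gardiquimod 7.5 μM; TLR8 R848 15.9 μM; TLR9 ODN2006 5 nM) and SEAP measured next day, at 22 h.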

human TLR8 = target: T2, human TLR8 (Homo sapiens, UniProt Q9NR97); assay: TLR8 inhibition reporter assay (HEK-Blue SEAP, R848 stimulation); format: cell-based; settings: HEK-Blue cells overexpressing human TLR8, R848 15.9 μM
T2 sequence (Q9NR97 27-1041): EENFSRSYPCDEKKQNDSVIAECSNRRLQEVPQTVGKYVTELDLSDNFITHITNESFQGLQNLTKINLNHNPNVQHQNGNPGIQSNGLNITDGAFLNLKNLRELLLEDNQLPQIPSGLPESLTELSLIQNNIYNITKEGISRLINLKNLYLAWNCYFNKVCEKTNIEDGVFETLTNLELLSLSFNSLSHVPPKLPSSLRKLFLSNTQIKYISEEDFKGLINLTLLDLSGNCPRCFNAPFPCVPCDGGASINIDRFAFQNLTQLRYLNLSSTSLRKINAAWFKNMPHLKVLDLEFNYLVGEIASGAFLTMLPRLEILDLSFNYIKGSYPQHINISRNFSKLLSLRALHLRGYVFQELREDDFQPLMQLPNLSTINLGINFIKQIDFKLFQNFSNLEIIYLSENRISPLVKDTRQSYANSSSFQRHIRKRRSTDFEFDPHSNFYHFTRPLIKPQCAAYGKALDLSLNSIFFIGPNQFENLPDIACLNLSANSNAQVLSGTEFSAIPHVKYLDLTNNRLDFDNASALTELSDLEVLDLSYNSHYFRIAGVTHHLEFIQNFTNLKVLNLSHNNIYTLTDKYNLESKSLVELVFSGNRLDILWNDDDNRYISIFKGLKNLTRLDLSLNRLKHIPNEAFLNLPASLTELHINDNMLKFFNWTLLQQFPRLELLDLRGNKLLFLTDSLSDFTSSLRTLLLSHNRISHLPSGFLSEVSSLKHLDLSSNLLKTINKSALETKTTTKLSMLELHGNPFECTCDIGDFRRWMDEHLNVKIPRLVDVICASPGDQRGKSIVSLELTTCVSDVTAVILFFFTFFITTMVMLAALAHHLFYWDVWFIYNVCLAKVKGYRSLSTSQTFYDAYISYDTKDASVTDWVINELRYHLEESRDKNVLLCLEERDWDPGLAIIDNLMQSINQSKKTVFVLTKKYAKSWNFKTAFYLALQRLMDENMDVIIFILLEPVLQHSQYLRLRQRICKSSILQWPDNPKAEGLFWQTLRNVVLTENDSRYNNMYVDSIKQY
Procedure: TLR7/8/9 Inhibition Reporter Assays
HEK-Blue™-cells (Invivogen) overexpressing human TLR7, TLR8 or TLR9 receptors were used for screening inhibitors of these receptors using an inducible SEAP (secreted embryonic alkaline phosphatase) reporter gene under the control of the IFN-β minimal promoter fused to five NF-κB and AP-1-binding sites. Briefly, cells are seeded into Greiner 384 well plates (15000 cells per well for TLR7, 20,000 for TLR8 and 25,000 for TLR9) and then treated with test compounds in DMSO to yield a final dose response concentration range of 0.05 nM-50 μM. After a 30 minute compound pre-treatment at room temperature, the cells are then stimulated with a TLR7 ligand (gardiquimod at a final concentration of 7.5 μM), TLR8 ligand (R848 at a final concentration of 15.9 μM) or TLR9 ligand (ODN2006 at a final concentration of 5 nM) to activate NF-κB and AP-1 which induce the production of SEAP. After a 22 hour incubation at 37° C., 5% CO2, SEAP levels are determined with the addition of HEK-Blue™ Detection reagent (Invivogen), a cell culture medium that allows for detection of SEAP, according to manufacturer's specifications. The percent inhibition is determined as the % reduction in the HEK-Blue signal present in wells treated with agonist plus DMSO alone compared to wells treated with a known inhibitor.

TLR7 = target: T3, TLR7 (Mus musculus, UniProt P58681); assay: In vivo mouse TLR7 PD model (gardiquimod-induced plasma IL-6 and IFN-alpha); settings: C57BL/6 mice, 90 min after gardiquimod
T3 sequence (P58681 27-1050): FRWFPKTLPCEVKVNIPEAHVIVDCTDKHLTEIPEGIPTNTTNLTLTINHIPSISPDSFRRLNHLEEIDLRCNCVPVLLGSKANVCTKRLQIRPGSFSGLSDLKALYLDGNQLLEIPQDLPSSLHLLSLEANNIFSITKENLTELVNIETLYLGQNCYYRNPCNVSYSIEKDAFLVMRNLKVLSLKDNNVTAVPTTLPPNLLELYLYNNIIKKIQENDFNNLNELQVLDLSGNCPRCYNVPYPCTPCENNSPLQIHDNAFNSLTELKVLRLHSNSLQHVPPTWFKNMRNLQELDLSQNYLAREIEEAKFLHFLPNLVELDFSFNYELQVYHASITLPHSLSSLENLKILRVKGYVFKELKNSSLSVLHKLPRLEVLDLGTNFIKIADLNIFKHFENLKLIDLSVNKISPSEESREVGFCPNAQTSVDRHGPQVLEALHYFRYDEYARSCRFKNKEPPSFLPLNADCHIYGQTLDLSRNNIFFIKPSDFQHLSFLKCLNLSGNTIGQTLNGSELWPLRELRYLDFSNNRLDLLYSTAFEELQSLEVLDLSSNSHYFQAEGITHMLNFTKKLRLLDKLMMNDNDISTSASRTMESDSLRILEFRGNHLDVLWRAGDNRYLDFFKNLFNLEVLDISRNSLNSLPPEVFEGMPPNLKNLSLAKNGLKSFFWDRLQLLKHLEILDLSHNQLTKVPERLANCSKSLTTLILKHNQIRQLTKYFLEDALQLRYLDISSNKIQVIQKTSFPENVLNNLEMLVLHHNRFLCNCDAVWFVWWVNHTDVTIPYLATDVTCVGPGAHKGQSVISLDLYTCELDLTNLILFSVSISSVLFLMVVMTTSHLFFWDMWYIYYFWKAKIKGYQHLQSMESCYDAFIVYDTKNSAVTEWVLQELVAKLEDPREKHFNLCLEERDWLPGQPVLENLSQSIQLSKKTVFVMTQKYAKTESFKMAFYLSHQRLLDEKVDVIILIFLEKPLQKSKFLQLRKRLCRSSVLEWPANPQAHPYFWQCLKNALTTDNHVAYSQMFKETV
Procedure: In Vivo Mouse TLR7 PD Model:
Adult male C57BL/6 mice were used for the experiments. Mice (7 to 10 per group) were randomized into different treatment groups based on body weight. Mice from the respective treatment groups were administered orally with vehicle or test compound. Thirty min after the oral administration of vehicle or test compound, mice were challenged with intraperitoneal injection of gardiquimod for TLR7 PD model. Ninety minutes after gardiquimod injection, mice were bled under isoflurane anaesthesia and plasma IL-6 and IFN-alpha levels were estimated by using commercially available ELISA kit (BD Biosciences, PBL Life Sciences). At the end of experiment, mean cytokine data was plotted and one way ANOVA with Dunnett's test was performed to calculate the significance of test compound treated group vs. vehicle control group. Percent inhibition of cytokine induction was calculated for test compound treated group vs vehicle control group.

IC50 (human TLR9): > 50 µM
IC50 (human TLR8): > 3.13 µM
SMILES: Cc1cc(-c2[nH]c3sc(N4CCN(CC(C)(C)O)C[C@H]4C)nc3c2C(C)C)cn2ncnc12 [Example 359, (R)-1-(4-(6-isopropyl-5-(8-methyl-[1,2,4]triazolo[1,5-a]pyridin-6-yl)-4H-pyrrolo[3,2-d]thiazol-2-yl)-3-methylpiperazin-1-yl)-2-methylpropan-2-ol]

% inhibition of IFN-alpha (TLR7; oral dose 0.001 mg/kg): 50%
% inhibition of IL6 (TLR7; oral dose 0.001 mg/kg): 21%
% inhibition of IFN-alpha (TLR7; oral dose 0.005 mg/kg): 63%
% inhibition of IL6 (TLR7; oral dose 0.005 mg/kg): 42%
% inhibition of IFN-alpha (TLR7; oral dose 0.025 mg/kg): 97%
% inhibition of IL6 (TLR7; oral dose 0.025 mg/kg): 78%
% inhibition of IFN-alpha (TLR7; oral dose 0.050 mg/kg): 99%
% inhibition of IL6 (TLR7; oral dose 0.050 mg/kg): 94%
SMILES: COc1cc(-c2[nH]c3sc(C4CCC(NC5COC5)CC4)nc3c2C(C)C)cn2ncnc12 (single isomer, unassigned) [Example 65, N-(4-(6-isopropyl-5-(8-methoxy-[1,2,4]triazolo[1,5-a]pyridin-6-yl)-4H-pyrrolo[3,2-d]thiazol-2-yl)cyclohexyl)oxetan-3-amine]

IC50 (human TLR8): > 3.13 µM
SMILES: Cc1cc(-c2[nH]c3sc(N4CCNC[C@H]4C)nc3c2C(C)C)cn2ncnc12 [Example 311, (R)-6-isopropyl-5-(8-methyl-[1,2,4]triazolo[1,5-a]pyridin-6-yl)-2-(2-methylpiperazin-1-yl)-4H-pyrrolo[3,2-d]thiazole]

IC50 (human TLR8): > 3.13 µM
SMILES: Cc1cc(-c2[nH]c3sc(N4CCN(CC(C)C)C[C@H]4C)nc3c2C(C)C)cn2ncnc12 [Example 361, (R)-2-(4-isobutyl-2-methylpiperazin-1-yl)-6-isopropyl-5-(8-methyl-[1,2,4]triazolo[1,5-a]pyridin-6-yl)-4H-pyrrolo[3,2-d]thiazole]

IC50 (human TLR8): > 3.13 µM
SMILES: COCCN1CCN(c2nc3c(C(C)C)c(-c4cc(C)c5ncnn5c4)[nH]c3s2)[C@H](C)C1 [Example 357, (R)-6-isopropyl-2-(4-(2-methoxyethyl)-2-methylpiperazin-1-yl)-5-(8-methyl-[1,2,4]triazolo[1,5-a]pyridin-6-yl)-4H-pyrrolo[3,2-d]thiazole]
